Measured values from patent US5159085A, “2-anilino phenylacetic acid derivatives as inhibitors of PLA2 and lipoxygenase” (American Home Products Corporation, priority 1991, dated 1992).

How the values were obtained:
LTC4 = assay: In vivo murine zymosan peritonitis assay, LTC4 (lipoxygenase pathway); parameters: species or system mouse (male CD-1); conditions: p.o., mouse, standard drugs
Protocol: The compounds of the invention are evaluated for their ability to inhibit the lipoxygenase and/or cyclooxygenase pathways of arachidonic acid metabolism in the in vivo murine zymosan peritonitis assay.
(§1) This assay is carried out as follows:
Male CD-1 mice (8 weeks old) are placed in plastic boxes in groups of six. Animals are injected with 1 ml i.p. of either 1% zymosan in pyrogen free 0.9% saline or saline (unstimulated control). Compounds are dosed orally 1 hour prior to zymosan injection. Twenty minutes after zymosan injection, the mice are asphyxiated by CO2 inhalation and the peritoneal cavity is lavaged with 2 ml ice cold Hanks Balanced Salt Solution (HBSS) without CaCl2, MgSO4 ·7H2 O and MgCL2 ·6H2 O. Peritoneal lavage fluid from each mouse is removed by syringe and placed in 5 ml plastic test tubes put on ice and volume is noted. Preparation of samples for evaluation by ELISA is as follows: Samples are centrifuged at 800×g for 15 minutes; 1 ml of the supernatant is added to 8 ml ice cold methanol and kept at -70° C. overnight to precipitate protein; and samples are then centrifuged at 800×g for 15 minutes, followed by a drying procedure in a Savant speed vac concentrator. The samples are reconstituted with 1 ml ice cold ELISA buffer and stored at -70° C. until assayed. The assay for eicosanoids (LTC4 and 6-keto-PGF1α) is performed according to conventional ELISA procedures.
Compounds to be tested orally are suspended in 0.5% Tween 80. Compounds to be tested intraperitoneally are suspended in 0.5% methylcellulose in 0.9% saline.
The total metabolite level in lavage fluid/mouse is calculated and the significance is determined by a one-way analysis of variance with LSD comparisons to control (p≤0.05). Drug effects are expressed as a percent change from control values.

human platelet PLA2 = target: T1, human platelet PLA2 (Homo sapiens, UniProt P14555); assay: In vitro isolated phospholipase A2 assay, human platelet PLA2 (arachidonic acid release from 3H-AA E. coli substrate); type: biochemical; conditions: 10 μM; human platelet; negative values denote potentiation; read-out: % Inhibition at 10 μM HP
T1 construct: Semipurified human platelet acid extract PLA2; from tissue; host or cells: human platelets (semipurified acid extract)
T1 sequence (P14555 21-144): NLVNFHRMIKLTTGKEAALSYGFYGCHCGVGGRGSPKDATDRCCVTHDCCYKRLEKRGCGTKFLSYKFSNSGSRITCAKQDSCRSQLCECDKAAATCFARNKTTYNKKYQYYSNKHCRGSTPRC

[1] = test system: paw edema induced by exogenous PLA2 (snake, A. piscivorus piscivorus); assay: In vivo PLA2 murine paw edema assay; parameters: species or system mouse (male CD-1)
Protocol: The ability of the compounds of the invention to inhibit paw edema induced by the exogenous administration of PLA2 is measured in the in vivo PLA2 murine paw edema assay.
(§2) The assay is carried out as follows:
Non-fasted, male CD-1 mice (8 weeks old; 31-36 grams) are placed in plastic boxes in groups of six. The right hind paw volume is measured using mercury plethysmography (zero time). […] A solution of purified PLA2, from the diamond back cotton mouth snake (A. piscivorus piscivorus) is prepared in saline at a concentration of 6 μg/ml. Fifty (50) μl (0.3 μg) of this PLA2 solution is injected subcutaneously into the right hind paw with a plastic 1 ml plastic syringe (27 gauge, 1" needle). Paw volume of the injected paw is measured again at 10 minutes, 30 minutes and 60 minutes after PLA2 injection. Animals are euthanized with CO2 at the completion of the study.
The paw edema is calculated by subtracting the zero time volume from the volume recorded at each time period. Mean paw edema for each treatment group is then calculated and expressed as (μl±S.E.). Drug effects are expressed as a percent change from control (vehicle) values. Statistical significance is determined by a one-way analysis of variance with LSD comparison to control (p<0.05). ED50 's are determined using repression analysis.

[2] = target: T2, human synovial fluid PLA2 (Homo sapiens, UniProt P14555); assay: In vitro isolated phospholipase A2 assay, human synovial fluid PLA2; type: biochemical; conditions: 10 μM; human synovial fluid; negative values denote potentiation; read-out: % Inhibition at 10 μM HSF
T2 construct: Purified human synovial fluid; from tissue; host or cells: human synovial fluid
T2 sequence (P14555 21-144): T1 sequence (P14555 21-144)
Protocol: The compounds of the invention are tested in an in vitro isolated phospholipase A2 assay to determine the ability of the test compounds to inhibit the release of arachidonic acid from an arachidonic acid-containing substrate by the action of phospholipase A2 enzyme from human and non-human sources.
as §1
Into a 15 mL polypropylene tube are added the following:
*pre-incubate at room temperature 30 min prior to substrate addition.
^5 Stock 10 mM prepared in dimethyl sulfoxide. Make 1:2 dilution with
dimethyl sulfoxide and add 1 μ L to 100 μL assay tube.
^6 Two human PLA2 enzymes are used:
b) Purified human synovial fluid.
Incubate the 100 μL reaction mixture for 10 minutes at 37° C. in a shaking water bath. The reaction is terminated by the addition of 2 mL tetrahydrofuran, followed by vortexing. NH2 columns (100 μg/mL--Analytichem International) are conditioned with 0.5 mL tetrahydrofuran followed by 0.5 mL tetrahydrofuran/water (2 mL:0.1 mL, v/v).
The sample is loaded onto the columns and slowly drawn through them. The hydrolyzed arachidonic acid retained in the columns is eluted therefrom with 1 mL tetrahydrofuran/glacial acetic acid (2%). The arachidonic acid is transferred to scintillation vials and quantitated by β-counting analysis. A "total counts" sample is prepared by pipetting 25 μL ^3 H-arachidonate E. coli directly into a scintillation vial to which is added 1 mL tetrahydrofuran. 10 mL aquasol (scintillation cocktail) is added to all samples. [formula]

[3] = test system: LTB4 synthesis by rat glycogen-elicited polymorphonuclear leukocytes (lipoxygenase); assay: Inhibition of LTB4 synthesis by rat glycogen-elicited polymorphonuclear leukocytes (PMN); type: cell-based, rat (female Wistar); conditions: Leukocyte, A 23187 and exogenous AA; for inhibition at 0.5 µM: negative value denotes potentiation
Description: This is especially true with respect to 5,12-diHETE, which is also denoted as LTB4 [see Ford-Hitchinson, J. Roy. Soc. Med., 74, 831 (1981)]. Compounds which inhibit the PLA2 -mediated release of arachidonic acid thereby effectively prevent the oxidation of arachidonic acid to the various leukotriene products via the lipoxygenase cascade. Accordingly, the specificity of action of PLA2 inhibitors can be determined by the activity of test compounds in this assay, which measures the ability of compounds to inhibit the synthesis of LTB4 by rat glycogen-elicited polymorphonuclear leukocytes (PMN) in the presence of exogenous substrate.
as §2
(§3) Rat polymorphonuclear leukocytes (PMNs) are obtained from female Wistar rats (150-200 g) which receive an injection of 6% glycogen (10 ml i.p.). Rats are sacrificed 18-24 hours post injection by CO2 asphyxiation and the elicited cells are harvested by peritoneal lavage using physiological saline (0.9% NaCl). The exudate is centrifuged at 400×g for 10 minutes. The supernatant fluid is discarded and the cell pellet is resuspended to a concentration of 2.0×10^7 cells/ml in HBSS containing Ca^++ and Mg^++ and 10 μM L-cysteine.
(§4) To 1 ml aliquots of cell suspension, test drugs or vehicle are added, then preincubated at 37° C. for 10 minutes. A 23187 (1 μM), [^3 H]-AA (3.0 μCi/ml) and unlabeled AA (1 μM) are then added and the samples are further incubated for 10 minutes. The reaction is terminated by centrifugation and pelleting cells. Supernatants are then analyzed by HPLC analysis on a 15 cm×4.6 mm ID supelcosil LC-18 (Supelco)(3M) column, using a two solvent system at a flow rate of 1.4 ml total flow as follows:
Gradient: (system is equillibrated with Solvent A)
(§5) Percent solvent changes are accomplished in a linear fashion.
(§6) Injections: 150 μl of each supernatant is injected directly onto column and ^3 H arachidonic acid metabolites are monitored using an on-line radioactivity detector (Ramona, IN/US, Fairfield, NJ).
(§7) Standards: 10^4 -2.0×10^4 dpm of eicosanoids of interest are injected in 90 μl EtOH cocktail.
(§8) Co-chromatography with standard [^3 H] leukotriene B4 (LTB4) in medium of stimulated PMN exposed to drug is compared to that found in medium of stimulated cells exposed to no drug, generating percent inhibition.
(§9) Results are expressed as percent inhibition at a given compound dose or as an IC50 value.

[4] = test system: TxB2 synthesis (cyclooxygenase) by rat glycogen-elicited polymorphonuclear leukocytes; assay: Inhibition of TxB2 synthesis by rat glycogen-elicited PMN (cyclooxygenase); type: cell-based, rat (female Wistar); conditions: Rattus norvegicus, Leukocyte; for inhibition at 0.5 µM: negative values denote potentiation of cyclooxygenase
Protocol: as §3, §4, §5, §6, §7, §8, §9
In this assay, the procedure of Example 19 is carried out as described. However, in order to determine cyclooxygenase activity, the samples are co-chromatographed with authentic reference [^3 H]-TxB2.
The results are calculated as in Example 19 and presented below: […]

SMILES	ED50 LTC4 (LTC4)	inhibition at 10 µM (human platelet PLA2)	% Change in Edema 10 min ([1]; 1 mg/kg i.p.)	% Change in Edema 10 min ([1]; 10 mg/kg i.p.)	% Change in Edema 30 min ([1]; 10 mg/kg i.p., 30 min)	change in vivo at 1 mg/kg ([1]; Mus musculus, ip, 0.5 h, 1 mg/kg i.p., 30 min)	inhibition at 10 µM [2]	inhibition at 10 µM [3]	inhibition at 0.5 µM [4]	% Change in Edema 60 min ([1]; 10 mg/kg i.p.)	% Change in Edema 10 min ([1]; 50 mg/kg p.o.)	% Change in Edema 30 min ([1]; 50 mg/kg p.o., 30 min)	% Change in Edema 60 min ([1]; 50 mg/kg p.o.)	inhibition at 0.5 µM [3]	% Change in Edema 3 min ([1]; 10 mg/kg i.p.)	% Change in Edema 3 min ([1]; 50 mg/kg p.o.)	inhibition at 10 µM ([4]; at 10 μM)
CC(C)Cc1ccc(C(C)C(=O)O)cc1 (centres unmarked) [Ibuprofen, reference compound]	Not Active																
COC(=O)Cc1cc(OCc2ccc3ccccc3c2)ccc1Nc1c(Cl)cccc1Cl [Example 7, 2-[(2,6-Dichlorophenyl)amino]-5-[(2-naphthalenyl)-methoxy]benzene acetic acid methyl ester]		3.6%	-54%	-32%	-39%	-44%	-65.4%	34%	-26%								
O=C(O)Cc1cc(OCc2ccc3ccccc3c2)ccc1Nc1c(Cl)cccc1Cl [Example 8, acetic acid]		-3.9%		-28%	-43%		42.5%		30%	-47%	+35%	-37%	-24%	67%			
COc1ccc2c(c1)c(CC(=O)O)c(C)n2C(=O)c1ccc(Cl)cc1 [Indomethacin, reference compound]	Not Active																
O=C(O)Cc1cc(OCCCCOc2ccccc2)ccc1Nc1c(Cl)cccc1Cl [Example 9, 2-[(2,6-Dichlorophenyl)amino]-5-[(4-phenoxy)butoxy]benzene acetic acid]		2.2%		-54%	-32%		15.7%	100%	38%		-12%	-4%		16%	-41%	+37%	100%
